# Numbers after ± are expanded uncertainties.
# Conditions: Liquid, Closed cell (Static) method
vapor or sublimation pressure (303.15 K) [kPa],vapor or sublimation pressure (318.15 K) [kPa],vapor or sublimation pressure (333.15 K) [kPa],SMILES
10.42 ± 0.38,23.02 ± 0.46,46.63 ± 0.58,CCO [ethanol]
3.63 ± 0.31,9.01 ± 0.34,19.93 ± 0.39,CCCO [propan-1-ol]

SMILES,vapor or sublimation pressure (303.15 K) [kPa],vapor or sublimation pressure (318.15 K) [kPa],vapor or sublimation pressure (333.15 K) [kPa]
CC1CO1 (centres undefined) [methyloxirane],86.9 ± 1.2,147.85 ± 1.9,237.88 ± 2.8
